{"source": "patent US20100178277A1", "about": "“METHODS AND COMPOSITIONS FOR STIMULATING CELLS” (MEDIVATION NEUROLOGY, INC., priority 2007, published 2010)", "key": {"[1]": {"system": "primary rat hippocampal neurons", "assay": "Neurite outgrowth of primary rat hippocampal neurons cultured with dimebon", "type": "cell-based", "description": "To isolate hippocampal neurons, a female rat of 19 days gestation was killed by cervical dislocation, and the fetuses were removed from the uterus. Their brains were removed and placed in ice-cold medium of Leibovitz (L15, Gibco, Invitrogen). Meninges were carefully removed, and the hippocamps were dissected out. The hippocampal neurons were dissociated by trypsinization for 30 minutes at 37° C. (Trypsin-EDTA; Gibco) in the presence of DNAse I (Roche; Meylan). The reaction was stopped by the addition of DMEM (Gibco) cell culture medium with 10% of FBS (Gibco). The suspension was triturated with a 10-ml pipette using a needle syringe 21G and centrifuged at 350×g for 10 minutes at room temperature. The resulting pellet is resuspended in culture medium containing Neurobasal medium (Gibco) supplemented with 2% B27 supplement (Gibco) and 2 mM of glutamine (Gibco). Viable cells were counted in a Neubauer cytometer using the trypan blue exclusion test (Sigma) and seeded on the basis of 30,000 cells per Petri dish (Nunc) precoated with poly-L-lysine. Cells were allowed to adhere for two hours and maintained in a humidified incubator at 37° C. in 5% CO2-95% air atmosphere. After adhesion, a vehicle control or dimebon was added at different concentrations to the medium. BDNF (1.85 nM) was used as a positive control for neurite growth. After treatment, cultures were washed in phosphate-buffered saline (PBS, Gibco) and fixed in glutaraldehyde 2.5% in PBS. Cells were fixed after 3 days growth. Several pictures (˜80) of cells with neurites without any branching were taken per condition with a camera (Coolpix 995; Nikon) fixed on microscope (Nikon, objective 40×). The length measurements were made by analysis of the pictures using software from Image-Pro Plus (France). The results were expressed as mean (s.e.m.). Statistical analysis of the data was performed using one way analysis of variance (ANOVA). […]\nThe effect of Dimebon (100 nM) on neurite outgrowth using primary hippocampal neurons was evaluated by measuring neurite length (expressed % of control, FIG. 5A) and number of neurites per neuron (FIG. 5B). The effects of vehicle, Dimebon and BDNF (50 ng/mL) were determined after incubations of 24 hours, 48 hours and 72 hours. […]\n(§1) Primary neuronal cultures were prepared from rat fetal tissue on the gestation days indicated from the cortex (day 17), hippocampus (day 19) or spine (day 15). […] Neurite length was calculated using Image-Pro Plus. […] Mitochondrial effects were assessed with primary rat hippocampal cells treated with Dimebon or vehicle and 0.25 μM ionomycin. Dimebon's effects on JC-1 mitochondrial staining was also assessed in ionomycin-treated human neuroblastoma cells (SK—N—SH). Mitochondrial accumulation of JC-1 was assessed by fluorescence microscopy."}, "[2]": {"system": "primary rat cortical neurons", "assay": "Neurite outgrowth of primary rat cortical neurons cultured with dimebon", "type": "cell-based", "conditions": "low concentrations (picomolar and nanomolar); 3 days growth; FIG. 1", "description": "(§2) Standard methods were used to isolate cortical neurons and spinal motor neurons. For the isolation of primary rat cortical neurons, the fetal brain from a pregnant rat at 17 days of gestation was prepared in Leibovitz's medium (L15; Gibco). The cortex was dissected out, and the meninges were removed. Trypsin (Gibco) was used to dissociate cortical neurons for 30 minutes at 37° C. with DNAse I. The cells were triturated in a 10 mL pipette in Dulbecco's Modified Eagle Media (“DMEM”; Gibco) with 10% Fetal Bovine Serum (“FBS”) (Gibco) and centrifuged at 350×g for 10 minutes at room temperature. The cells were suspended in Neurobasal medium supplemented with 2% B27 (Gibco) and 0.5 mM L-glutamine (Gibco). […] The results were expressed as mean (s.e.m.). […]\nas §1"}, "[3]": {"system": "human neuroblastoma cells (SK—N—SH)", "assay": "Mitochondrial JC-1 staining in ionomycin-treated SK-N-SH cells", "type": "cell-based", "description": "(§3) Primary neuronal cultures were prepared from rat fetal tissue on the gestation days indicated from the cortex (day 17), hippocampus (day 19) or spine (day 15). Neurons were dissociated by trypsinization in the presence of DNAseI and trituration and cultured in Neurobasal (Gibco) medium supplemented with 2% B27 (Gibco), 0.5 mM L-Glutamine. Cells were plated on poly L-lysine coated plates, allowed to adhere and maintained at 37° C. in 5% CO2-95% air and then test compound was added for a period of 3 days. Cultures were fixed using 2.5% glutaraldehyde. Approximately 80 digital images were taken per condition. Neurite length was calculated using Image-Pro Plus. Each analysis was performed with two separate culture studies. Dimebon was tested at concentrations of 0.01-500 nM and BDNF at 50 ng/mL. Mitochondrial effects were assessed with primary rat hippocampal cells treated with Dimebon or vehicle and 0.25 μM ionomycin. Dimebon's effects on JC-1 mitochondrial staining was also assessed in ionomycin-treated human neuroblastoma cells (SK—N—SH). Mitochondrial accumulation of JC-1 was assessed by fluorescence microscopy."}, "[4]": {"system": "BrdU positive cells/neurons in the hippocampus and dentate gyrus", "assay": "Neurogenesis in healthy rats: BrdU / NeuN immunohistochemistry of hippocampus and dentate gyrus", "type": "in vivo, Wistar rats", "conditions": "14 days", "source_text": "Wistar rats were obtained from Charles River or Harlan Winkelmann (Germany). Male rats were approximately 3 months old upon arrival at the animal colony. Animals were kept in an animal facility under standardized conditions and according to the animal welfare regulations of the Ministry of Science of the Austrian government. A record of bodyweights was maintained. The animals were allowed to acclimatize for at least one week prior to any experimental manipulations. Twelve rats per group were maintained on a 12 hour light/dark cycle. Three backup animals were maintained in order to compensate for animal loss. All rats were housed in groups of four per cage and had ad libitum access to food and water. Rats were randomly allocated to four different treatment groups receiving intraperitoneal (i.p.) 5-bromo-2-deoxyuridine (BrdU, Sigma #B9285, 50 mg/kg body weight (b.w.)) and either (i) Dimebon at 10 mg/kg b.w./twice a day; (ii) Dimebon at 30 mg/kg b.w./twice a day; (iii) Dimebon at 60 mg/kg b.w./twice a day; or (iv) 0.2 mL vehicle (saline) twice a day. Treatment with BrdU, a synthetic nucleoside analog of thymidine, is commonly used to detect proliferating cells in living tissues such as the brain. Dimebon and vehicle were administered orally twice a day in a volume of 0.2 mL. BrdU was administered every other day. The daily Dimebon or vehicle treatment was performed several minutes before BrdU treatment. On day 14, animals were sacrificed approximately four hours after the last Dimebon treatment and one day after the last BrdU treatment. Diluted dimebon was prepared fresh daily. At sacrifice, the rats were sedated using standard anesthesia. After transcardial perfusion with phosphate buffered saline (PBS) followed by 4% Paraformaldehyde/PBS, the brain from each rat was carefully removed, post-fixed in 4% Paraformaldehyde/PBS for one hour, transferred to 15% sucrose for cryoprotection, and shock-frozen in liquid isopentane. Brains were stored at −80° C. until cryo-cutting. The brains were cut sagittally using a cryotome and stored at −20° C. until staining. Five layers were cut with 10 sections at 20 micrometers per layer with an interlayer slice gap of 100 micrometers. Standard Cresyl-Violett staining was performed on two consecutive slices per animal. BrdU immunohistochemistry was quantified to provide a morphological overview of cell division. For the evaluation of BrdU positive cells/neurons, sections were processed by double-incubation with mouse anti-Neuronal Nuclei (NeuN) monoclonal antibody (Chemicon) and anti-BrdU (Abcam). One section per layer was treated in a three-day double-incubation with mouse anti-Neuronal Nuclei (NeuN) monoclonal antibody 1:800 (Chemicon, Hofheim. Germany) and anti-BrdU (sheep polyclonal to BrdU) 1:500 (Abcam, Cambridge, UK). The secondary antibodies were a Cy-3-conjugated pure affine goat anti-mouse IgG (H+L) 1:200 (Jackson ImmunoResearch, Cambridgeshire, UK) and a Cy 2-conjugated pure affine F(ab′)2 fragment of donkey anti-sheep IgG (H+L) 1:100 (Jackson ImmunoResearch, Cambridgeshire, UK). Briefly, the anti-NeuN antibody was incubated overnight at 4° C., the Cy3 antibody was incubated the next day for one hour at room temperature, followed by the anti-BrdU antibody overnight at 4° C. and the Cy2 antibody for one hour at room temperature. To open the cell surfaces before the BrdU incubation, slices were treated with 2N HCl for 15 minutes at 40° C. and then washed for 20 minutes in a methanol mixture (60 ml methanol, 2 ml H2O2, and 0.6 ml Triton X) to block endogenous peroxidases. Niss1 staining was used as an overview staining. Tiled images of the sagittal slice including the cortex and the hippocampus were recorded at 200-fold magnification. Each single image used a PCO PixelFly camera mounted on a NikonE800 microscope equipped with an software controlled (StagePro) automatic table. Both fluorescent colors, red for NeuN and green for BrdU, were recorded separately. For quantification, the images were merged. […]"}, "[5]": {"system": "primary rat spinal motor neurons", "assay": "Neurite outgrowth of primary rat spinal motor neurons cultured with dimebon", "type": "cell-based", "conditions": "picomolar and nanomolar concentrations; FIG. 4", "description": "as §2, §1"}, "[6]": {"system": "primary rat hippocampal cells", "assay": "Mitochondrial JC-1 staining in ionomycin-treated primary rat hippocampal cells", "type": "cell-based", "conditions": "Dimebon 0.25 nM and 2.5 nM; 0.25 μM ionomycin; compared with vehicle treatment", "description": "as §3"}}}
{"smiles": "Cc1ccc2c(c1)c1c(n2CCc2ccc(C)nc2)CCN(C)C1.Cl.Cl", "note": "[Dimebon, 2,8-dimethyl-5-(2-(6-methyl-3-pyridyl)-ethyl)-2,3,4,5-tetrahydro-1H-pyrido[4,3-b]indole dihydrochloride]", "values": [{"measurement": "effect on neurite length and number of neurites per neuron relative to BDNF", "setting": "[1]; Dimebon 100 nM vs BDNF 50 ng/mL, 24, 48, 72 hours", "value": "comparable"}, {"measurement": "neurite length", "setting": "[1]; Dimebon 100 nM, incubations of 24, 48 and 72 hours, compared to vehicle, FIG. 5A", "value": "increased"}, {"measurement": "number of neurites per neuron", "setting": "[1]; Dimebon 100 nM, incubations of 24, 48 and 72 hours, compared to vehicle, FIG. 5B", "value": "increased"}, {"measurement": "neurite outgrowth of primary rat hippocampal neurons", "setting": "[1]; picomolar and nanomolar concentrations, 3 days growth, FIG. 3", "value": "stimulated"}, {"measurement": "neurite outgrowth of primary rat cortical neurons", "setting": "[2]", "value": "stimulated"}, {"measurement": "mitochondrial JC-1 staining", "setting": "[3]", "value": "preserved"}, {"measurement": "BrdU positive progenitor cells in the dentate gyrus", "setting": "[4]; 30 mg/kg Dimebon vs vehicle, p=0.05, FIG. 7A", "value": "significant increase"}, {"measurement": "BrdU positive progenitor cells in the hippocampus", "setting": "[4]; 60 mg/kg Dimebon vs vehicle-treated group, p=0.05, FIG. 6A", "value": "significant increase"}, {"measurement": "BrdU positive neurons (NeuN and BrdU IR) in the hippocampus", "setting": "[4]; 60 mg/kg Dimebon vs vehicle-treated group, p=0.05, FIG. 6B", "value": "significant increase"}, {"measurement": "BrdU positive progenitor cells in the dentate gyrus", "setting": "[4]; 60 mg/kg Dimebon vs vehicle-treated group, p=0.05, FIG. 7A", "value": "significant increase"}, {"measurement": "BrdU positive neurons (NeuN and BrdU IR) in the dentate gyrus", "setting": "[4]; 60 mg/kg Dimebon vs vehicle-treated group, p=0.05, FIG. 7B", "value": "significant increase"}, {"measurement": "total number of BrdU staining cells in the hippocampus", "setting": "[4]; rats, oral twice a day, FIG. 6A", "value": "increases"}, {"measurement": "number of BrdU staining neurons in the hippocampus", "setting": "[4]; rats, oral twice a day, FIG. 6B", "value": "increases"}, {"measurement": "total number of BrdU staining cells in the dentate gyrus", "setting": "[4]; rats, oral twice a day, FIG. 7A", "value": "increases"}, {"measurement": "number of BrdU staining neurons in the dentate gyrus", "setting": "[4]; rats, oral twice a day, FIG. 7B", "value": "increases"}, {"measurement": "neurite outgrowth of primary rat spinal motor neurons", "setting": "[5]", "value": "stimulated"}, {"measurement": "mitochondrial JC-1 staining", "setting": "[6]", "value": "preserved"}]}
